Reference: patent publication US20120190752A1, “EXO-S-MECAMYLAMINE METHOD, USE, AND COMPOUND FOR TREATMENT” (Targacept Inc., priority 2009, published 2012)

Tested on: subjects with major depressive disorder (MDD) who were inadequate responders to citalopram
Test: SGI-Cog (Subject Global Impression-Cognition) with Attention, Memory, Speed subscales, Phase 2b add-on trial
Format: in vivo, human
Parameters: SGI-Cognition Adj. Mean / SGI-Attention Adj. Mean / SGI-Memory Adj. Mean / SGI-Speed Adj. Mean / SGI-Cog TOTAL Adjusted Mean / SGI-Cog MEMORY Adjusted Mean / SGI-Cog ATTENTION Adjusted Mean / SGI-Cog SPEED OF THINKING Adjusted Mean: scale not given here
Conditions: for SGI-Cog ATTENTION Adjusted Mean / SGI-Cog ATTENTION Mean Difference between TC-5214 and Placebo / SGI-Cog MEMORY Adjusted Mean / SGI-Cog MEMORY Mean Difference between TC-5214 and Placebo / SGI-Cog SPEED OF THINKING Adjusted Mean / SGI-Cog SPEED OF THINKING Mean Difference between TC-5214 and Placebo / SGI-Cog TOTAL Adjusted Mean / SGI-Cog TOTAL Mean Difference between TC-5214 and Placebo: Double Blind Week 16; for SGI-Attention Adj. Mean / SGI-Memory Adj. Mean / SGI-Speed Adj. Mean / SGI-Cognition Adj. Mean / SGI-Attention Difference vs placebo / SGI-Cognition Difference vs placebo / SGI-Memory Difference vs placebo / SGI-Speed Difference vs placebo: ITT; for SGI-Attention Adj. Mean / SGI-Memory Adj. Mean / SGI-Speed Adj. Mean / SGI-Cognition Adj. Mean: assessed at endpoint (Week 16), patient rated change from baseline; for SGI-Cognition Adj. Mean: sum of 3 items; for SGI-Attention Difference vs placebo / SGI-Cognition Difference vs placebo / SGI-Memory Difference vs placebo / SGI-Speed Difference vs placebo: endpoint (Week 16)
Experimental: In more detail, a multi-center double-blind, randomized, placebo-controlled, parallel group, flexible dose titration study of TC-5214 as adjunctive therapy in subjects with major depressive disorder (MDD) who were inadequate responders to citalopram was conducted in centers in the US and India. The study consisted of a screening period, baseline/washout period, open-label phase, double-blind phase, and a follow-up visit. Subject participation in the study could continue for up to 16 weeks of treatment. Following a washout period of up to 28 days for other antidepressants, subjects with MDD and a MADRS total score >/=28 and a Clinical Global Impression-Severity (CGI-S) score >/=4 were enrolled on Day 1 into an open-label citalopram-only phase of the study. This phase lasted 8 weeks, with citalopram (CIT) dose increased from a once-daily dose of 20 mg (Day 1 through Week 4) to 40 mg (Week 4 through Week 8). A total of 579 subjects entered the open-label citalopram phase. At Week 8, subjects who tolerated 40 mg CIT, but whose MADRS score was reduced <50% from baseline and no lower than 17, and CGI-S≧4, were considered inadequate responders. These subjects (n=270) were randomized in a double-blind fashion to receive either placebo or TC-5214-23 as add-on therapy to continued CIT. The double-blind phase of the study also lasted 8 weeks (Week 8 to Week 16). Study drug, TC-5214-23 or placebo, was started at 2 mg daily (1 mg twice per day [BID] dosing), added on to continuing CIT (40 mg PO qd). After 2 weeks of treatment, the dose of TC-5214 could be increased to 4 mg (2 mg BID) or continued unchanged, with up-titration based upon good tolerability and inadequate therapeutic response. After a further 2 weeks, the dose of TC-5214 could be increased again to 8 mg (4 mg BID) if judged appropriate by the investigator, based upon good tolerability and inadequate therapeutic response. At any time during the double-blind phase of the study, placebo or TC-5214-23 could be reduced to the previous dose level following the emergence of unacceptable adverse events (AEs). […] At this follow-up, any signs or symptoms of relapse were evaluated. If a subject was prematurely discontinued from the study between Week 8 and Week 16 for any reason, the investigator was to make every effort to perform all evaluations as per protocol, assuming the subject had reached the end of the double-blind add-on treatment phase. These evaluations were to be made as soon as possible and within 2 weeks of discontinuation. […] There was no meaningful difference in results as a function of age, gender, site, or smoking status. [table] With regard to efficacy endpoints, the following tables present efficacy used in the ITT (Intent-to-Treat) and PP (Per Protocol) populations unless otherwise specific. The primary inference was based upon Week 16 visit using the ITT population. Change from baseline was obtained by subtracting the baseline values from the individual on-treatment values. Change from Week 16 was obtained by subtracting the Week 16 values from the individual follow-up visit (Week 18/19) values. If either the baseline or Week 16 or on-treatment or follow-up value was missing, the change from baseline or Week 16 value was also set to missing. To account for missing data, the last observation carry forward (LOCF) method was used for the ITT and PP populations. Thus, the last available on-therapy observation for a subject, including the observation at premature discontinuation, was used to estimate subsequent missing data points. For efficacy, baseline data were collected at Week 8 in the double-blind augmentation phase electronic case report form pages. With regard to SGI-Cog, the endpoint was the Week 16 results for the SGI-Cog. The Week 16 SGI-Cog composite score and each scale were analyzed at Week 16 using ANOVA. […]

CNC1(C)C2CCC(C2)C1(C)C (stereo in doubt) [TC-5214, (S)—N,2,3,3-tetramethylnorbornan-2-amine]
SGI-Cog ATTENTION Adjusted Mean (ITT Population): 2.13 | SGI-Cog ATTENTION Mean Difference between TC-5214 and Placebo (ITT Population): 0.72 | SGI-Cog MEMORY Adjusted Mean (ITT Population): 2.23 | SGI-Cog MEMORY Mean Difference between TC-5214 and Placebo (ITT Population): 0.67 | SGI-Cog SPEED OF THINKING Adjusted Mean (ITT Population): 2.16 | SGI-Cog SPEED OF THINKING Mean Difference between TC-5214 and Placebo (ITT Population): 0.76 | SGI-Cog TOTAL Adjusted Mean (ITT Population): 6.52 | SGI-Cog TOTAL Mean Difference between TC-5214 and Placebo (ITT Population): 2.15 | SGI-Attention Adj. Mean: 2.13 (0.09) | SGI-Memory Adj. Mean: 2.23 (0.09) | SGI-Speed Adj. Mean: 2.16 (0.09) | SGI-Attention Adj. Mean (listed as TC-5214 + CIT): 2.13 | SGI-Memory Adj. Mean (listed as TC-5214 + CIT): 2.23 | SGI-Speed Adj. Mean (listed as TC-5214 + CIT): 2.16 | SGI-Cognition Adj. Mean: 6.52 (0.27) | SGI-Cognition Adj. Mean (listed as TC-5214 + CIT): 6.52 | SGI-Attention Difference vs placebo: −0.72 (−0.96, −0.47) | SGI-Cognition Difference vs placebo: −2.15 (−2.89, −1.41) | SGI-Memory Difference vs placebo: −0.67 (−0.93, −0.42) | SGI-Speed Difference vs placebo: −0.76 (−1.02, −0.50) | SGI-Attention Difference vs placebo (listed as TC-5214 + CIT): −0.72 | SGI-Cognition Difference vs placebo (listed as TC-5214 + CIT): −2.15 | SGI-Memory Difference vs placebo (listed as TC-5214 + CIT): −0.67 | SGI-Speed Difference vs placebo (listed as TC-5214 + CIT): −0.76 | SGI-Cog ATTENTION Adjusted Mean (PP Population): 2.03 | SGI-Cog ATTENTION Mean Difference between TC-5214 and Placebo (PP Population): 0.76 | SGI-Cog MEMORY Adjusted Mean (PP Population): 2.15 | SGI-Cog MEMORY Mean Difference between TC-5214 and Placebo (PP Population): 0.68 | SGI-Cog SPEED OF THINKING Adjusted Mean (PP Population): 2.05 | SGI-Cog SPEED OF THINKING Mean Difference between TC-5214 and Placebo (PP Population): 0.81 | SGI-Cog TOTAL Adjusted Mean (PP Population): 6.23 | SGI-Cog TOTAL Mean Difference between TC-5214 and Placebo (PP Population): 2.25 | Total SGI-Cog scores compared with placebo (Week 16, ITT and PP populations, result in words): statistically significant lower
